Reference: publication PMC7919047, “Trichilianones A-D, Novel Cyclopropane-Type Limonoids from Trichilia adolfi” (Molecules, 2021)
In brackets after ≈: the same amount, converted by molar mass. Read-outs that look alike come from different tables or passages of the source.

Columns and labels:
[1] = system: L. braziliensis promastigotes; experiment: In vitro leishmanicidal activity against promastigotes (optical density, 72 h); assay type: cell-based; conditions: Leishmania braziliensis, read-out: Leishmanicidal activity L.b, IC50
Method: (§1) Leishmanicidal activity was assayed according to Williams, with some modification. Promastigotes of Leishmania: L. amazonensis, Clone 1, NHOM-BR-76-LTB-012 (Lma, donated by the Paul Sabatier Université, France) and L. braziliensis M2904 C192 RJA (M2904, donated by Dr. Jorge Arévalo from Universidad Peruana Cayetano Heredia, Peru). The strains were cultured in Schneider’s insect medium (pH 6.2), supplemented with 10% FBS and incubated in 96-microwell plates at 26 °C. Briefly, promastigotes in logarithmic phase of growth, at concentration of 106 parasites/mL, were exposed to samples dissolved in DMSO (1%) at different concentrations (3.1–100 μg/mL). Miltefosine (3.1–100 μg/mL, IDPS, France) was used as control drug. The microwell plates were incubated for 72 h at 26 °C, the optical density of each well was measured and the IC50 values calculated. All assays were performed in triplicate.

[2] = system: Leishmania amazonensis promastigotes; experiment: as above; assay type: cell-based; conditions: read-out: Leishmanicidal activity L.a., IC50
Method: as §1

[3] = Cytotoxicity in Raw 264.7 murine macrophage cell cultures (resazurin, 72 h); assay type: cell-based; conditions: mouse, Raw 264.7 murine macrophages, 72 h at 37 °C, 6.2–200 μg/mL, triplicate
Method: The Raw 264.7 murine macrophage cell line was purchased from the American-Type Culture Collection (ATCC-TIB71). The cells were maintained in DMEM-HG medium supplemented with 10% fetal bovine serum, 100 U/mL of penicillin and 100 μg/mL of streptomycin, and sodium bicarbonate (2.2 g/L) in humidified atmosphere at 37 °C with 5% CO2. Samples were prepared as described above and added (in 100 μL DMSO) at different concentrations (6.2–200 μg/mL). Medium blank, control drugs and cell growth controls were included to evaluate cell viability. The plates were incubated for 72 h at 37 °C with 5% CO2. After incubation for the indicated time, the cells were washed, after which 10 μL of Resazurin reagent (2.0 mM) was added. They were further incubated at 37 °C for 3 h in a humidified incubator. The IC50 values were assessed using a fluorometric reader (540 nm excitation, 590 nm emission) and Gen5 software. All assays were performed in triplicate.

Row | SMILES | IC50 ([1]; 72 h) | IC50 ([2]; 72 h) | IC50 at 72 h [3] | melting point | IC50 at 72 h ([3]; Raw 264.7 macrophage cells) | IC50 ([1]; L. braziliensis M2904 C192 RJA promastigotes, 72 h at 26 °C, 3.1–100 μg/mL, triplicate) | IC50 ([2]; L. amazonensis Clone 1 NHOM-BR-76-LTB-012 promastigotes, 72 h at 26 °C, 3.1–100 μg/mL, triplicate)
1 | COC(=O)CC1C(C)(C)OC(=O)C=C2OC3(C)C45C(=O)CC(c6ccoc6)C4(C)C(OC(C)=O)C(O)C35C21C (stereo not shown) [Compound 1, Trichilianone A] | > 100 µg/mL | > 100 µg/mL | 64 ± 23 µg/mL (≈ 118 µM) | 181 °C | – | – | –
2 | COC(=O)CC1C(C)(C)OC(=O)CC2OC3(C)C45C(=O)CC(c6ccoc6)C4(C)C(OC(C)=O)C(O)C35C21C (stereo not shown) [Compound 2, Trichilianone B] | > 100 µg/mL | > 100 µg/mL | – | 145 °C | 75 ± 18 µg/mL (≈ 138 µM) | – | –
3 | COC(=O)CC1C(C)(C)OC(=O)CC2OC3(C)C45C(=O)CC(c6ccoc6)C4(C)C(OC(C)=O)C(OC(=O)C(C)C)C35C21C (stereo not shown) [Compound 3, Trichilianone C] | > 100 µg/mL | > 100 µg/mL | – | 151 °C | 70 ± 27 µg/mL (≈ 114 µM) | – | –
4 | COC(=O)CC1C(C)(C)OC(=O)C=C2OC3(C)C45C(=O)CC(C6=CCOC6=O)C4(C)C(OC(C)=O)C(O)C35C21C (stereo not shown) [Compound 4, Trichilianone D] | > 100 µg/mL | > 100 µg/mL | 76 ± 23 µg/mL (≈ 136 µM) | 175 °C | – | – | –
5 | CCCCCCCCCCCCCCCCOP(=O)([O-])OCC[N+](C)(C)C [Miltefosine, reference compound] | – | – | – | – | 21 ± 2 µg/mL (≈ 51.5 µM) | 4.1 ± 0.5 µg/mL (≈ 10.1 µM) | 5 ± 0.2 µg/mL (≈ 12.3 µM)
